Experimental findings from patent US20140256690A1, “CONTRACEPTIVE METHOD” (AGILE THERAPEUTICS, INC., priority 2013, published 2014) are described below.

The series in a line: Saturation solubilities of enhancers in PSAs. Format: physicochemical.
Where [1] appears, read: in Duro-Tak 87-4098 (polyacrylate PSA).

Regarding `C[S+](C)[O-]` [DMSO, dimethyl sulfoxide], the “Saturation Solubilities” value under setting [1] turned out to be 8 mg/g and the “Saturation Solubilities” value (in PIB PSA) is 0.01 mg/g.
For `CCCCCCCCCCCCOC(=O)C(C)O` (stereo not shown) [Lauryl Lactate, lauryl lactate], in that order: 1000 mg/g and 785 mg/g.
